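Five concentrations, 48 hours, 96-well plates. GI50 marks 50% less growth.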 Active and inactive are the calls of the source. No stated cut-off is given here; in the data, active = GI50 up to about 1.1 µM and inactive = higher.
Assays:
Assay in all cases: NCI tumour cell line growth inhibition, 48 h
[1] = test system: U-251
[2] = test system: KM12
[3] = test system: MOLT-4
[4] = test system: HL-60
[5] = test system: HCT-15
[6] = test system: RPMI-8226
[7] = test system: COLO 205
[8] = test system: NCI-H522
[9] = test system: TK-10
[10] = test system: IGROV-1
[11] = test system: SR
[12] = test system: SW-620
[13] = test system: SF-295
[14] = test system: EKVX
[15] = test system: PC-3
[16] = test system: MDA-MB-435
[17] = test system: UACC-257
[18] = test system: SF-268
[19] = test system: 786-0
[20] = test system: T47D
[21] = test system: SN12C
[22] = test system: SK-MEL-28
[23] = test system: SNB-19
[24] = test system: NCI/ADR-RES
[25] = test system: MDA-MB-231
[26] = test system: OVCAR-5
[27] = test system: HCT-116
[28] = test system: MDA-N
[29] = test system: HOP-62
[30] = test system: MCF7
[31] = test system: SK-MEL-5
[32] = test system: M14
[33] = test system: SNB-75
[34] = test system: ACHN
[35] = test system: OVCAR-8
[36] = test system: K562
[37] = test system: UO-31
[38] = test system: SF-539
[39] = test system: SK-OV-3
[40] = test system: HCC 2998
[41] = test system: OVCAR-3
[42] = test system: NCI-H460
[43] = test system: CCRF-CEM
[44] = test system: LOX IMVI
[45] = test system: Malme-3M
[46] = test system: DU-145
[47] = test system: A549
[48] = test system: HT-29
[49] = test system: CAKI-1
[50] = test system: A498
[51] = test system: UACC-62
[52] = test system: SK-MEL-2
[53] = test system: RXF 393
[54] = test system: NCI-H226
[55] = test system: Hs-578T
[56] = test system: NCI-H23
[57] = test system: OVCAR-4
[58] = test system: HOP-92

In the case of `COc1ccc2c3c([nH]c2c1)-c1nc2ccccc2c(=O)n1CC3`, the GI50 [1] is reported as > 25 µM (inactive), the GI50 [2] is reported as > 25 µM (inactive) and the GI50 [3] is reported as > 25 µM (inactive). The GI50 [4] was > 25 µM (inactive), the GI50 [5] was greater than 25 µM and the GI50 [6] was > 25 µM (inactive). The GI50 [7] was > 25 µM (inactive), the GI50 [8] was > 25 µM (inactive) and the GI50 [9] was > 25 µM (inactive). For the same compound, the GI50 [10] was > 25 µM (inactive), the GI50 [11] was > 25 µM (inactive) and the GI50 [12] was > 25 µM (inactive). The GI50 [13] was > 25 µM (inactive), the GI50 [14] was > 25 µM (inactive) and the GI50 [15] was > 25 µM (inactive). For the same compound, the GI50 [16] was > 25 µM (inactive), the GI50 [17] was > 25 µM (inactive) and the GI50 [18] was 21.5 µM (inactive). For the same compound, the GI50 [19] was 0.317 µM (active), the GI50 [20] was > 25 µM (inactive) and the GI50 [21] was > 25 µM (inactive). For the same compound, the GI50 [22] was > 25 µM (inactive), the GI50 [23] was > 25 µM (inactive) and the GI50 [24] was > 25 µM (inactive). The GI50 [25] was > 25 µM (inactive), the GI50 [26] was > 25 µM (inactive) and the GI50 [27] was > 25 µM (inactive). The GI50 [28] was > 25 µM (inactive), the GI50 [29] was > 25 µM (inactive) and the GI50 [30] was > 25 µM (inactive). The GI50 [31] was > 25 µM (inactive), the GI50 [32] was > 25 µM (inactive) and the GI50 [33] was 13.1 µM (inactive). The GI50 [34] was > 25 µM (inactive), the GI50 [35] was > 25 µM (inactive) and the GI50 [36] was > 25 µM (inactive). For the same compound, the GI50 [37] was > 25 µM (inactive), the GI50 [38] was 14.9 µM (inactive) and the GI50 [39] was > 25 µM (inactive). The GI50 [40] was > 25 µM (inactive).

For `COc1ccc(-c2oc3ccccc3c(=O)c2O)cc1OC` [3-HYDROXY-3',4'-DIMETHOXYFLAVONE], the GI50 [1] was 4.92 µM (inactive), the GI50 [5] was greater than 100 µM and the GI50 [7] was > 100 µM (inactive). The GI50 [8] was 4.63 µM (inactive), the GI50 [9] was 12.3 µM (inactive) and the GI50 [10] was 14.3 µM (inactive). The GI50 [12] was > 100 µM (inactive), the GI50 [13] was 17.4 µM (inactive) and the GI50 [14] was > 100 µM (inactive). For the same compound, the GI50 [15] was > 100 µM (inactive), the GI50 [16] was > 100 µM (inactive) and the GI50 [17] was > 100 µM (inactive). The GI50 [18] was 7.5 µM (inactive), the GI50 [20] was 99.5 µM (inactive) and the GI50 [22] was 25.3 µM (inactive). The GI50 [41] was 47.5 µM (inactive), the GI50 [23] was 29 µM (inactive) and the GI50 [24] was 3.77 µM (inactive). For the same compound, the GI50 [25] was > 100 µM (inactive), the GI50 [42] was 4.69 µM (inactive) and the GI50 [43] was 3.81 µM (inactive). The GI50 [44] was 9.95 µM (inactive), the GI50 [26] was > 100 µM (inactive) and the GI50 [45] was > 100 µM (inactive). The GI50 [27] was > 100 µM (inactive), the GI50 [28] was > 100 µM (inactive) and the GI50 [29] was 11.2 µM (inactive). The GI50 [30] was > 100 µM (inactive), the GI50 [31] was > 100 µM (inactive) and the GI50 [32] was > 100 µM (inactive). For the same compound, the GI50 [34] was 10.6 µM (inactive), the GI50 [36] was > 100 µM (inactive) and the GI50 [37] was > 100 µM (inactive). For the same compound, the GI50 [46] was 7.16 µM (inactive), the GI50 [47] was > 100 µM (inactive) and the GI50 [48] was > 100 µM (inactive). For the same compound, the GI50 [49] was 55.2 µM (inactive), the GI50 [50] was 6.92 µM (inactive) and the GI50 [39] was 4.81 µM (inactive). For the same compound, the GI50 [51] was 5.22 µM (inactive).

For `O=S(=O)(/N=c1\[nH]c(-c2cc(O)c(O)c(O)c2)cs1)c1ccc(Cl)cc1Cl`, the GI50 [1] was 19 µM (inactive), the GI50 [2] was 15.2 µM (inactive) and the GI50 [3] was 20.7 µM (inactive). For the same compound, the GI50 [4] was 41.8 µM (inactive), the GI50 [52] was 43.8 µM (inactive) and the GI50 [5] was 17.2 µM. For the same compound, the GI50 [6] was 19.4 µM (inactive), the GI50 [7] was 22 µM (inactive) and the GI50 [8] was 17.9 µM (inactive). For the same compound, the GI50 [9] was 4.65 µM (inactive), the GI50 [10] was 20.8 µM (inactive) and the GI50 [12] was 18.5 µM (inactive). The GI50 [13] was 17.2 µM (inactive), the GI50 [14] was 18.1 µM (inactive) and the GI50 [15] was 34.5 µM (inactive). For the same compound, the GI50 [16] was 22.2 µM (inactive), the GI50 [17] was 16 µM (inactive) and the GI50 [18] was 20.5 µM (inactive). The GI50 [19] was 19.7 µM (inactive), the GI50 [53] was 25.5 µM (inactive) and the GI50 [20] was 15.3 µM (inactive). For the same compound, the GI50 [21] was 18.7 µM (inactive), the GI50 [22] was > 100 µM (inactive) and the GI50 [41] was 17.4 µM (inactive). The GI50 [23] was 31 µM (inactive), the GI50 [24] was 26.4 µM (inactive) and the GI50 [25] was 21.3 µM (inactive). The GI50 [42] was 18.7 µM (inactive), the GI50 [43] was 19.9 µM (inactive) and the GI50 [44] was 12.8 µM (inactive). For the same compound, the GI50 [26] was 18.2 µM (inactive), the GI50 [45] was 21.8 µM (inactive) and the GI50 [27] was 19 µM (inactive). For the same compound, the GI50 [28] was 25.1 µM (inactive), the GI50 [29] was 17.9 µM (inactive) and the GI50 [30] was 17.6 µM (inactive). For the same compound, the GI50 [31] was 17.1 µM (inactive), the GI50 [54] was 50.4 µM (inactive) and the GI50 [32] was 22.1 µM (inactive). For the same compound, the GI50 [33] was 25.7 µM (inactive), the GI50 [34] was 14.6 µM (inactive) and the GI50 [35] was 0.034 µM (active). The GI50 [55] was 20.1 µM (inactive), the GI50 [36] was 18.6 µM (inactive) and the GI50 [37] was 20.4 µM (inactive). For the same compound, the GI50 [46] was 20.3 µM (inactive), the GI50 [38] was 27.6 µM (inactive) and the GI50 [56] was 26.5 µM (inactive). The GI50 [47] was 31.9 µM (inactive), the GI50 [57] was 22.1 µM (inactive) and the GI50 [48] was 22.8 µM (inactive). The GI50 [49] was 17.3 µM (inactive), the GI50 [50] was 53.1 µM (inactive) and the GI50 [39] was 72.6 µM (inactive). For the same compound, the GI50 [51] was > 100 µM (inactive) and the GI50 [58] was 41.2 µM (inactive).

For `O=S(=O)(c1ccccc1)n1c2ccc(Br)cc2c2nc3ccccc3nc21`, the GI50 [1] was > 100 µM (inactive), the GI50 [2] was > 100 µM (inactive) and the GI50 [3] was > 100 µM (inactive). The GI50 [52] was > 100 µM (inactive), the GI50 [5] was greater than 100 µM and the GI50 [6] was > 100 µM (inactive). The GI50 [7] was > 100 µM (inactive), the GI50 [8] was > 100 µM (inactive) and the GI50 [9] was > 100 µM (inactive). The GI50 [10] was > 100 µM (inactive), the GI50 [11] was > 100 µM (inactive) and the GI50 [12] was > 100 µM (inactive). The GI50 [13] was > 100 µM (inactive), the GI50 [15] was > 100 µM (inactive) and the GI50 [16] was > 100 µM (inactive). The GI50 [17] was > 100 µM (inactive), the GI50 [18] was > 100 µM (inactive) and the GI50 [19] was > 100 µM (inactive). For the same compound, the GI50 [53] was > 100 µM (inactive), the GI50 [20] was > 100 µM (inactive) and the GI50 [21] was > 100 µM (inactive). The GI50 [22] was > 100 µM (inactive), the GI50 [41] was > 100 µM (inactive) and the GI50 [23] was > 100 µM (inactive). For the same compound, the GI50 [24] was > 100 µM (inactive), the GI50 [25] was > 100 µM (inactive) and the GI50 [42] was > 100 µM (inactive). For the same compound, the GI50 [43] was > 100 µM (inactive), the GI50 [44] was > 100 µM (inactive) and the GI50 [26] was > 100 µM (inactive). The GI50 [45] was > 100 µM (inactive), the GI50 [27] was > 100 µM (inactive) and the GI50 [28] was > 100 µM (inactive). The GI50 [29] was > 100 µM (inactive), the GI50 [31] was > 100 µM (inactive) and the GI50 [54] was 47.9 µM (inactive). For the same compound, the GI50 [32] was > 100 µM (inactive), the GI50 [33] was > 100 µM (inactive) and the GI50 [34] was > 100 µM (inactive). For the same compound, the GI50 [35] was > 100 µM (inactive), the GI50 [55] was > 100 µM (inactive) and the GI50 [36] was > 100 µM (inactive). For the same compound, the GI50 [37] was > 100 µM (inactive), the GI50 [46] was > 100 µM (inactive) and the GI50 [56] was > 100 µM (inactive). For the same compound, the GI50 [47] was > 100 µM (inactive), the GI50 [57] was > 100 µM (inactive) and the GI50 [48] was > 100 µM (inactive). The GI50 [49] was > 100 µM (inactive), the GI50 [50] was > 100 µM (inactive) and the GI50 [51] was > 100 µM (inactive). For the same compound, the GI50 [58] was > 100 µM (inactive) and the GI50 [40] was > 100 µM (inactive).
